Measured values: patent publication US7652149B2, “Crystalline pyrazoles” (Pharmacia & Upjohn Company LLC, priority 2004, dated 2010)

Assay: Suspension crystallization: relative thermodynamic stability of Forms I and II, Tt bracketed
Assay type: physicochemical
Conditions: for temperature at which the form is the equilibrium solid phase (thermodynamically more stable): mixture of Forms I and II suspended in toluene, at least three days, PXRD
Description: In this Example, the transition temperature between Forms I and II is described. Form I and Form II are enantiotropic, which means that one polymorph is stable at temperatures below a transition temperature, Tt, but the other polymorph is stable at temperatures above Tt. The two solid phases have equal free energies at the transition temperature. Knowledge of the thermodynamic stability relationship is necessary for the selection of suitable crystallization conditions to produce Form I, and for formulation development and commercial manufacturing. It is important to determine Tt for the preparation and processing of bulk drug.
Materials. The Form I sample used in this study was 100% pure when tested by HPLC. Form II was prepared by heating Form I to 155° C. for 3 days in a dry oven and cooled to room temperature. This Form II sample was free of chemical degradation when tested by HPLC.
Methods. Suspension crystallization. The relative stability relationship between Forms I and II at a specific temperature was bracketed by suspending a mixture of the two polymorphs in toluene in a closed glass vial that was equilibrated at the temperature of interest. Excess solid of one polymorph was first added to saturate toluene in a glass vial at the chosen temperature. The other polymorph was added at least half an hour later. The suspension was stirred continuously for at least three days. A portion of the suspension was withdrawn and immediately filtered. The filtered solid was analyzed using PXRD to identify the equilibrium solid at that temperature. […] By repeating the experiment at different temperatures, the Tt was bracketed.

SMILES | relative stability of the crystal form (ambient temperature and pressure) | temperature at which the form is the equilibrium solid phase (thermodynamically more stable)
NS(=O)(=O)c1ccc(-n2nc(C(F)(F)F)cc2-c2ccc(F)cc2)cc1 [Form II, 4-[5-(4-fluorophenyl)-3-(trifluoromethyl)-1H-pyrazol-1-yl]-benzenesulfonamide] | unstable with respect to another form, Form I | ≥ 71.5 °C
NS(=O)(=O)c1ccc(-n2nc(C(F)(F)F)cc2-c2ccc(F)cc2)cc1 [Form I, 4-[5-(4-fluorophenyl)-3-(trifluoromethyl)-1H-pyrazol-1-yl]-benzenesulfonamide] |  | ≤ 71.0 °C
